Source: patent US4150138A, “Method of reducing blood pressure with thiourea derivatives and guanidine derivatives” (Hoffmann-La Roche Inc., priority 1978, dated 1979)
Like-named read-outs stand apart in the source and are kept apart here.

Columns and labels:
[1] = system: genetically or deoxycorticosterone acetate/sodium chloride fed hypertensive rats; test: Anti-hypertensive activity in hypertensive rats (indirect systolic blood pressure from the tail, heart rate); assay type: in vivo, rat (Charles River male); conditions: 10 mg/kg p.o., 6 hours after administration
Method: For example, Doca-Na hypertension is induced in Charles River male rats weighing 170-210 grams by unilateral nephrectomy followed by subcutaneous implantation of a 25 mg. deoxycorticosterone acetate pellet. Animals are placed in individual cages and receive 0.9% sodium chloride solution and rat chow diet ad libitum. Two weeks are allowed to elapse from the time of surgery for development of hypertension, i.e., systolic blood pressure above 150 mm Hg. Systolic blood pressure is measured indirectly from the tail of unanesthetized rats (restrained in holders heated for 5-10 minutes at 37°-38° C.) using a pneumatic pulse transducer (piezo-electric crystal and occluding cuff). The transducer and occluding cuff are coupled to a two-channel recorder. Control readings are taken prior to drug and at 1, 3, 6 and 24 hours post-drug. All test compounds are prepared in acacia solution (5%) and are orally administered to the test animals.

[2] = Acute toxicity (LD50) in the mouse; conditions: in vivo
[3] = system: tetrabenazine-induced ptosis in mice; test: Antidepressant activity: prevention of tetrabenazine-induced ptosis in mice; assay type: in vivo; conditions: Mus musculus, ip, 1 h, tetrabenazine (normally 150 mg/kg) i.p. one hour after test compound, ptosis read one hour later, read-out: ED50 (dose at which ptosis is prevented in 3/6 of the mice)
Method: The compounds of formulas I and II have central nervous system activity, including antidepressant activity. […] For example, six mice are treated with the test compound. One hour later a ptosis-inducing dose of tetrabenazine (normally 150 mg/kg) is given intraperitoneally. Ptosis is read one hour after the tetrabenazine injection. The ED50 is the dose at which ptosis is prevented in 3/6 of the mice. […] The ED50 is calculated by the method of Behrens. Arch. Exp. Path. & Pharm. 140, 237 (1929).

| Compound | decrease in the blood pressure [1] | decrease in the heart rate [1] | LD50 ([2]; ip, read-out: LD50 i.p.) | LD50 ([2]; po, read-out: LD50 p.o.) | ED50 [3] |
| --- | --- | --- | --- | --- | --- |
| NCCNC(=S)Nc1cccc(Cl)c1Cl [1-(2-aminoethyl)-3-(2,3-dichlorophenyl)thiourea] | 51 mm/Hg | 95 beats/minutes | 450 mg/kg | > 1000 mg/kg |  |
| NCCNC(=S)Nc1c(Cl)cccc1Cl [1-(2-aminoethyl)-3-(2,6-dichlorophenyl)thiourea] | 73 mm/Hg | 81 beats/minutes | 450 to 550 mg/kg | 750 to 775 mg/kg | 5.7 mg/kg |
